Experimental data from PMC9291816 (Clinical Pharmacology and Therapeutics, 2021).

How the values were obtained:
[1] = system: CYP3A; conditions: both, human, plasma, po, 2 mg, probe midazolam
[2] = cited from earlier work
[3] = system: CYP3A; design: species or system human; conditions: refined to recover observed midazolam AUCR; 1/18 of the in vitro k inact
[4] = PBPK model; cited from earlier work
[5] = system: infants with Type 1 SMA; conditions: cited from earlier work
[6] = Clinical DDI study in healthy adults; type: in vivo, human; conditions: for AUC(0-t) / Cmax: both, human, plasma, oral

Compound | AUC(0-t) [1] [ng·h/mL] | Cmax [1] [ng/mL] | UGT1A4 contribution to clearance ([2]; adults) | FG (intestinal availability) [2] | in vivo k inact [3] | hepatic intrinsic CL via CYP3A share of clearance [4] [%] | hepatic intrinsic CL via FMO3 share of clearance [4] [%] | renal CL (CLR) share of clearance [4] [%] | increase in the SMN protein [5] | tolerability ([6]; 14 days, alone and coadministered with midazolam, healthy adults) | AUC(0-t) ([6]; 5 mg) [ng·h/mL] | Cmax ([6]; 5 mg) [ng/mL] | AUC(0-t) ([6]; 8 mg) [ng·h/mL] | Cmax ([6]; 8 mg) [ng/mL]
Cc1ncc2n1-c1ccc(Cl)cc1C(c1ccccc1F)=NC2 [midazolam] | 19.9 | 7.65 | 1–2% | 0.55 | – | – | – | – | – | – | – | – | – | –
Cc1cn2nc(-c3cc(=O)n4cc(N5CCNC6(CC6)C5)ccc4n3)cc(C)c2n1 [risdiplam, Risdiplam] | – | – | – | – | in vivo k inact ^e = 0.22/hour | 20 | 75 | 5 | approximately twofold | well tolerated | 1250 | 78.6 | 1730 | 113
